Consider one molecule from ChEMBL document CHEMBL3112498, “Inhibition of protein kinase C α/βII and activation of c-Jun NH2-terminal kinase mediate glycyrrhetinic acid induced apoptosis in non-small cell lung cancer NCI-H460 cells” (Bioorg Med Chem Lett, 2014).

Experiment [1] has as its system NCI-H460. In words: Cell cycle arrest in human NCI-H460 cells assessed as accumulation at sub-G1 phase at 12.5 uM after 1 hr by propidium iodide staining-based flow cytometric analysis (reference value: 2.2%). The format is functional. Background: Flow cytometry measures light scatter and fluorescence of single cells or particles in a stream.
Experiment [2] relates to NCI-H460. Description: Induction of apoptosis in human NCI-H460 cells assessed as caspase-3 cleavage at 50 uM after 24 hrs by Western blot analysis in presence of PKC promoter PMA, JNK inhibitor SP600125. Type of experiment: functional, cell-based. (Immunoblotting shows a protein as a band on a membrane.)
The subject of experiment [3] is NCI-H460. Description: Induction of apoptosis in human NCI-H460 cells assessed as downregulation of Bcl-xL protein expression at 12.5 to 50 uM after 24 hrs by Western blot analysis. Type of experiment: functional, cell-based.
Experiment [4] concerns the target T1, PKC alpha and beta-2 (Homo sapiens) (UniProt P17252+P05771). In words: Inhibition of PKC alpha/beta-2 phosphorylation in human NCI-H460 cells at 50 uM after 24 hrs by Western blot analysis in presence of PKC promoter PMA, JNK inhibitor SP600125. Type of experiment: cell-based.
In experiment [5] the test system is NCI-H460. Description: Induction of apoptosis in human NCI-H460 cells assessed as PARP cleavage at 12.5 to 50 uM after 24 hrs by Western blot analysis. The format is functional, cell-based.
Experiment [6] deals with NCI-H460. Description: Induction of apoptosis in human NCI-H460 cells assessed as activation of caspase 9/3 at 12.5 to 50 uM after 24 hrs by Western blot analysis. Type of experiment: functional, cell-based.
Experiment [7] concerns the target c-Jun N-terminal kinase, JNK (Homo sapiens) (UniProt P45983+P53779+P45984). In words: Induction of c-Jun N-terminal kinase phosphorylation in human NCI-H460 cells at 12.5 to 50 uM after 24 hrs by Western blot analysis. The format is cell-based.
For experiment [8], the system named is NCI-H460. In words: Induction of apoptosis in human NCI-H460 cells assessed as DNA fragmentation after 24 hrs by DAPI staining-based TUNEL assay. The format is functional, cell-based.
The subject of experiment [9] is NCI-H460. In words: Cell cycle arrest in human NCI-H460 cells assessed as accumulation at sub-G1 phase after 1 hr by propidium iodide staining-based flow cytometric analysis. The format is functional.
Experiment [10] concerns NCI-H460. Description: Induction of apoptosis in human NCI-H460 cells assessed as downregulation of cyclin E protein expression at 12.5 to 50 uM after 24 hrs by Western blot analysis. The format is functional, cell-based.
Experiment [11] deals with NCI-H460. In words: Cytotoxicity against human NCI-H460 cells assessed as cell viability after 24 hrs by XTT assay. The following applies: NCI-H460, 24 h. The format is functional, cell-based. On the technique in general: Tetrazolium dyes change colour on reduction, which living cells bring about.
The test system of experiment [12] is NCI-H460. In words: Cell cycle arrest in human NCI-H460 cells assessed as accumulation at sub-G1 phase at 50 uM after 24 hrs by propidium iodide staining-based flow cytometric analysis in presence of PKC promoter PMA, JNK inhibitor SP600125. The format is functional.
Experiment [13] relates to NCI-H460. In words: Induction of apoptosis in human NCI-H460 cells assessed as downregulation of Bcl-2 protein expression at 12.5 to 50 uM after 24 hrs by Western blot analysis. Type of experiment: functional, cell-based.
For experiment [14], the system named is NCI-H460. In words: Induction of apoptosis in human NCI-H460 cells assessed as downregulation of cyclin D1 protein expression at 12.5 to 50 uM after 24 hrs by Western blot analysis. The format is functional, cell-based.
Experiment [15] relates to A549. Description: Cell cycle arrest in human A549 cells assessed as accumulation at sub-G1 phase at 50 uM after 1 hr by propidium iodide staining-based flow cytometric analysis. The format is functional.
Experiment [16] relates to NCI-H460. Description: Induction of apoptosis in human NCI-H460 cells assessed as PARP cleavage at 50 uM after 24 hrs by Western blot analysis in presence of PKC promoter PMA, JNK inhibitor SP600125. The format is functional, cell-based.
Experiment [17] has as its system A549. Description: Induction of apoptosis in human A549 cells assessed as PARP cleavage at 12.5 to 50 uM after 24 hrs by Western blot analysis. The format is functional, cell-based.
Experiment [18] addresses Protein kinase C delta type (Homo sapiens) (UniProt Q05655). Description: Induction of PKC-delta phosphorylation in human NCI-H460 cells at 12.5 to 50 uM after 24 hrs by Western blot analysis. The format is cell-based.
Experiment [19] has as its system NCI-H460. In words: Inhibition of ERK phosphorylation in human NCI-H460 cells at 12.5 to 50 uM after 24 hrs by Western blot analysis. Type of experiment: cell-based.
Experiment [20] has as its system A549. Description: Cytotoxicity against human A549 cells assessed as cell viability after 24 hrs by XTT assay. The format is functional, cell-based. Conditions: A549, 24 h.
The target in experiment [21] is T1, PKC alpha and beta-2 (Homo sapiens). Description: Inhibition of PKC alpha/beta-2 phosphorylation in human NCI-H460 cells at 12.5 to 50 uM after 24 hrs by Western blot analysis. Type of experiment: cell-based.
The test system of experiment [22] is NCI-H460. In words: Cell cycle arrest in human NCI-H460 cells assessed as accumulation at sub-G1 phase at 50 uM after 1 hr by propidium iodide staining-based flow cytometric analysis (reference value: 2.2%). Type of experiment: functional.

Values after ≈ are worked out from the molar mass of the structure shown. Active and inactive are the calls of the source. The calls are words filed in the database; no cut-off is given here.

T1 sequence (P05771 whole entry, looked up): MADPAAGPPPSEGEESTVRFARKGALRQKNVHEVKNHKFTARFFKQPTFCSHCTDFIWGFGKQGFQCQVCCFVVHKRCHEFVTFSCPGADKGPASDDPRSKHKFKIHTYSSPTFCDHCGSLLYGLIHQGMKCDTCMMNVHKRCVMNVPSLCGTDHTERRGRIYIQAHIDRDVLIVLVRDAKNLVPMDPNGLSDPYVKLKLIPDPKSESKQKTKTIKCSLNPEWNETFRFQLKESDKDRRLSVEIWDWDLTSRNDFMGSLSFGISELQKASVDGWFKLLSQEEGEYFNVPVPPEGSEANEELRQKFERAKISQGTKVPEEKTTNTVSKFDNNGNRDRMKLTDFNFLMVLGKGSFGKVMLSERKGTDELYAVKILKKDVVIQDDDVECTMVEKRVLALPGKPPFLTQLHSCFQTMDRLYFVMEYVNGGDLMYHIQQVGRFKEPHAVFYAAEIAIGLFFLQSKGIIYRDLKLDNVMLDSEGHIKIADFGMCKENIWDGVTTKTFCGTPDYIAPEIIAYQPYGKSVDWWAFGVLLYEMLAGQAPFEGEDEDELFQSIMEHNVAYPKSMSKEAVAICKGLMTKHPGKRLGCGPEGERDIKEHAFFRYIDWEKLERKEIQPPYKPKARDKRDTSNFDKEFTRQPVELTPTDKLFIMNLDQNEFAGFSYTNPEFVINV
Protein kinase C delta type (Homo sapiens), sequence (Q05655 whole entry, looked up): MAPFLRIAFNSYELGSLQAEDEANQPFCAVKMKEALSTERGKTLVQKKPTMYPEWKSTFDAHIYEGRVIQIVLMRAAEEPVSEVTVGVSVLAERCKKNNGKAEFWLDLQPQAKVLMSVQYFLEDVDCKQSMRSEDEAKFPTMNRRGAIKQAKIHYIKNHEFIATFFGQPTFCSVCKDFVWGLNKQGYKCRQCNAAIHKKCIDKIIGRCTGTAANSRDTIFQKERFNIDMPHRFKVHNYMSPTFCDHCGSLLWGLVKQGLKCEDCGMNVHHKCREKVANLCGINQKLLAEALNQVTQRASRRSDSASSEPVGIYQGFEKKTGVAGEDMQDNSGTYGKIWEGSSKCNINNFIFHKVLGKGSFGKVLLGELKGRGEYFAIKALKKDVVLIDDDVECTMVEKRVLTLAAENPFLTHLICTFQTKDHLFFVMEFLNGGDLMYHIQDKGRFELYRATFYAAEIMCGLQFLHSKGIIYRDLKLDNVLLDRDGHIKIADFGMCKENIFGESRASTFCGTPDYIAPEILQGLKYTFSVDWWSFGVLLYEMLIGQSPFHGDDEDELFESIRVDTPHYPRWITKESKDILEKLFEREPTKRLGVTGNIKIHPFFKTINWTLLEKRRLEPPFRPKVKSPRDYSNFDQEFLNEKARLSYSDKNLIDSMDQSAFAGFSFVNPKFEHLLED

With `CC1(C)[C@@H](O)CC[C@]2(C)[C@H]3C(=O)C=C4[C@@H]5C[C@@](C)(C(=O)O)CC[C@]5(C)CC[C@@]4(C)[C@]3(C)CC[C@@H]12` [ENOXOLONE], the Activity in the experiment on NCI-H460 [1] is 2.8%; in the experiment on NCI-H460 [8] it was “Dose-dependent effect”; in the experiment with NCI-H460 [9], “Dose-dependent effect”; in the experiment on NCI-H460 [22], 40.1%. Further, the result in the experiment with NCI-H460 [2], in the experiment with NCI-H460 [12] and with NCI-H460 [16] was inactive. Moreover, the outcome (with NCI-H460 [3]; in the experiment on NCI-H460 [5]; in the experiment on NCI-H460 [6]; in experiment [7]; in the experiment with NCI-H460 [10]; with NCI-H460 [13]) was Active. The result (in the experiment with NCI-H460 [14]; in the experiment on A549 [15]; with A549 [17]; in [18]) was Active. For the same molecule, the inhibition result in [4] is “inactive”. In addition, the values for the IC50 in the experiment with NCI-H460 [11] and with A549 [20] were 62 µg/mL (≈ 132 µM) and 78 µg/mL (≈ 166 µM), respectively. For the same molecule, the inhibition result (in the experiment with NCI-H460 [19]; in [21]) was “Active” each time.
